# Data reported in patent US20130303460A1, “PEPTIDES AND COMPOSITIONS FOR THE TREATMENT OF NEUROECTODERMAL DERIVED TUMORS AND RETINOBLASTOMA” (Biokine Therapeutics Ltd., priority 2011, published 2013).
# What was measured:
# [1] = tested on: Neuroblastoma tumor cells injected into the adrenal; assay: Neuroblastoma tumor growth in mice, established (treatment) disease model; type: in vivo, NOD/SCID mice; details: subcutaneously 300 μg per mouse until day 30, started when tumor size reached ~0.04 cm^2 (FIG. 8)
# Description: (§1) NOD/SCID mice were maintained under defined flora conditions at the Hebrew University Pathogen-Free Animal Facility. All experiments were approved by the Animal Care Committee of the Hebrew University. 10^6 Neuroblastoma tumor cells were injected into the adrenal of the mice ([…] per mouse). As control, mice were treated with PBS. Tumor growth was monitored weekly. MRI testing was performed on a horizontal 4.7 T Bruker Biospec spectrometer, using a birdcage coil.
# [2] = tested on: Neuroblastoma tumor cells injected into the adrenal; assay: Neuroblastoma tumor growth in mice, residual disease model; type: in vivo, NOD/SCID mice; details: 300 μg per mouse from day 3 until day 30 after inoculation; residual disease model (FIG. 7)
# Description: as §1
# [3] = tested on: epithelial tumor cells (e.g., breast and prostate carcinoma and glioblastoma); assay: Effect on epithelial tumor cells; type: cell-based; details: summary statement, example not given
# [4] = tested on: Neuroblastoma cancer cell lines (SHY-5Y, SK-N-BE and NHH-NB-11); assay: Neuroblastoma cell viability, CellTiter 96 AQueous Non-Radioactive Cell Proliferation Assay; type: cell-based, human; details: 72 hours, 10% FCS; compared to other CXCR4 antagonists (e.g. AMD3100) (FIG. 4)
# Description: Neuroblastoma cancer cell lines (SHY-5Y, SK-N-BE and NHH-NB-11, FIGS. 4A, 4B, and 4C, respectively) were seeded at 2×10^4 viable cells/100 μl per well into a 96-well plate in triplicates in a medium supplemented with 10% FCS and incubated with different concentrations of BKT140, PLK1, AurA or AMD3100 for 72 hours. The plate was than tested for cell viability using the CellTiter 96® AQueous Non-Radioactive Cell Proliferation Assay.
# Y79 Retinoblastoma cells = assay: Survival of Y79 retinoblastoma cells (PI staining, FACS); type: cell-based, human; details: 4, 8, 20 and 40 micromolar, 24 hr; PI staining FACS (FIG. 3)
# Description: Y79: Retinoblastoma cells from primary tumor with familial history of Retinoblastoma;
# All cell lines were cultured in RPMI1640 (Gibco BRL life technologies)+10% FCS, 1% L-Glutamine, 1% PS (Penicillin, Streptomycin) (Biological Industries, Kibbutz Beth Haemek, Israel) at 37° C., 5% CO2.
# 4F-benzoyl-TN14003 (designated BKT140) effect on Y79 Retinoblastoma cells survival.
# [5] = tested on: Neuroblastoma cancer cell lines (SHY-5Y, SK-N-BE and NHH-NB-11); assay: Neuroblastoma cell death, PI+ cells by FACS and morphological assays; type: cell-based, human; details: 1% FCS, twenty hr, SK-N-BE and NHH-NB-11 (FIGS. 5, 6)
# Description: The effect of BKT140 or AMD3100 on the proliferation of neuroblastoma cancer cell lines was tested by seeding the cells at 2×10^4 cells/1 ml per well into a 24-well plate in medium supplemented with 1% FCS. Twenty hr later the cells stained with PI (Sigma, St. Louis, Mo.), and the number of PI+cells (death cells) was determined using FACS analysis (as described above) (see, FIG. 6A).
substance,measurement,setting,value
4F-benzoyl-Arg-Arg-Nal-Cys-Tyr-Cit-Lys-DLys-Pro-Tyr-Arg-Cit-Cys-Arg-NH2 [4F-benzoyl-TN14003],tumor growth,[1],delayed and in some cases inhibited tumor growth
same,tumor growth,[2],delayed and in some cases inhibited tumor growth
same,growth of epithelial tumor cells,[3]; breast and prostate carcinoma and glioblastoma,in some cases even stimulated the growth of epithelial tumor cells
same,epithelial tumor cell death,[3],did not induce epithelial tumor cell death
same,cell viability of neuroblastoma cells,[4],remarkably low cell viability
same,cell death / survival of Y79 retinoblastoma cells,Y79 Retinoblastoma cells,stimulate cell death of retinoblastoma cells
same,neuroblastoma cell death (PI+ cells),[5],stimulate neuroblastoma cell death
